Patent US11964988B2, “Fused heterocyclic compounds as RET kinase inhibitors” (ARRAY BIOPHARMA INC., priority 2018, dated 2024)
Substitutions are numbered along the chain they refer to.

Assays:
RET kinase Wild Type = RET kinase Wild Type (Homo sapiens, UniProt P07949); experiment: biochemical;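 further: HTRF kinase activity assay on RET enzyme, 1 h reaction at 22 °C, dual-wavelength readout as percent of control, DMSO-only wells as 100%, pre-quenched reactions as 0%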
[1] = target: T1, HEK-293 cells expressing a Kif5b-RET fusion protein (Homo sapiens, UniProt P07949); experiment: RET Cell Assay (phospho-RET Tyr1062); assay type: cell-based; settings: HEK-293 Kif5b-RET, 1 hour incubation, phospho-RET normalized to GAPDH; read-out: KIF5B-RET pTYR1062 Cell IC50
T1 construct: KIF5B (N-terminal portion incl. coiled-coil); expressed in transfected cells; host or cells: HEK-293; the other entry of the earlier key: KIF5B (P33176, Kinesin-1 heavy chain)
T1 sequence (P07949 713-1063 limits assumed): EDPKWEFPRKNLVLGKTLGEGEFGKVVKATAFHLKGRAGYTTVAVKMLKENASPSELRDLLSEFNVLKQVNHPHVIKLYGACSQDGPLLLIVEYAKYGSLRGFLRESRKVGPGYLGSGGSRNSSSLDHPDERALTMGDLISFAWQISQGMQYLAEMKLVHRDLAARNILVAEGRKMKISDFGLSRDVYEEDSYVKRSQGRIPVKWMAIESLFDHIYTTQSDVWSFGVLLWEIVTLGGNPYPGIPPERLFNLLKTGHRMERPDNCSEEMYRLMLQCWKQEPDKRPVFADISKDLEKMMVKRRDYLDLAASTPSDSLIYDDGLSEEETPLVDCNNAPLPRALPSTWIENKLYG
Method: (§1) The cellular potency of compounds inhibiting RET kinase were determined in HEK-293 cells expressing a Kif5b-RET fusion protein. Briefly, HEK-293 cells expressing a Kif5b-RET fusion protein were plated at 50K cells/well in 96 well poly-D-Lysine coated plates the day prior to the assay. The cells were incubated for 1 hour with test compound in DMEM (Dulbecco's Modified Eagle Medium) at a final DMSO concentration of 0.5%. […] After 1 hour the media was removed, the cells were fixed with 3.8% formaldehyde for 20 min, washed with PBS, and permeabilized for 10 min with 100% methanol. The plates were then washed with PBS-0.05% Tween20, and blocked with LI-COR Blocking solution (LI-COR Catalog No. 927-40000) for 1 hour. Plates were washed with PBS-0.05% Tween20, then incubated with anti-phospho-RET (Tyr1062) (Santa Cruz Catalog No. sc-20252-R) antibody and anti-GAPDH (Millipore Catalog No. MAB374) antibody for 2 hours. The plates were washed with PBS-0.05% Tween20, and incubated with anti-rabbit 680 (Molecular Probes Catalog No. A21109) and anti-mouse 800 (LI-COR Catalog No. 926-32210) secondary antibodies for 1 hour. All antibodies were diluted in LI-COR Block containing 0.05% Tween. The plates were washed with PBS-0.05% Tween20,100 μL PBS is added to each well, and the plates were read on a LI-COR Aerius fluorescent plate reader. The phospho-RET signal was normalized to the GAPDH signal. […] The POC values were fit to a 4 parameter logistic curve. The IC50 value is the point where the curve crosses 50 POC.

[2] = target: T2, HEK-293 cells expressing a G810S mutant RET Kif5b-RET fusion protein (Homo sapiens, UniProt P07949, G810S); experiment: RET G810S Mutant Cell Assay (phospho-RET Tyr1062); assay type: cell-based; settings: HEK-293 Kif5b-RET G810S, 1 hour incubation, phospho-RET normalized to GAPDH
T2 construct: KIF5B (N-terminal portion incl. coiled-coil); expressed in transfected cells; host or cells: HEK-293
T2 sequence (P07949 713-1063 G810S limits assumed): T1 sequence (P07949 713-1063 limits assumed) with G98S
Method: as §1, with “expressing a G810R or G810S mutant RET Kif5b-RET fusion” for “expressing a Kif5b-RET fusion”, “μL PBS was added to” for “μL PBS is added to”, “POC values are fit to” for “POC values were fit to”

G810S mutant RET kinase = G810S mutant RET kinase (Homo sapiens, UniProt P07949, G810S); experiment: biochemical;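 further: HTRF KinEASE-TK kinase assay with recombinant enzyme, 1 h at 22 °C, dual-wavelength ratiometric read-out, percent of control (DMSO-only = 100, pre-quenched reaction = 0)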
G810R mutant RET kinase = G810R mutant RET kinase (Homo sapiens, UniProt P07949, G810R); experiment: biochemical;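 further: HTRF KinEASE-TK enzymatic assay with 1 nM recombinant RET G810R, 1 h at 22 °C, dual-wavelength ratiometric readout, 100% control without compound, 0% from pre-quenched reactions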
RET kinase V804M = RET kinase V804M (Homo sapiens, UniProt P07949, V804M); experiment: RET Enzyme Assay (CisBio HTRF KinEASE-TK), V804M; assay type: biochemical; settings: read-out: RET V804M Enz FRET IC50
Method: The potency of compounds inhibiting several different RET kinase forms (Wild Type, V804M, G810R, & G810S) were determined using CisBio's HTRF® KinEASE™-TK assay technology. […] After a 1 hour incubation at 22° C., the extent of reaction was determined using a PerkinElmer EnVision multimode plate reader via HTRF dual wavelength detection, and the percent of control (POC) was calculated using a ratiometric emission factor. One hundred POC was determined using DMSO only samples (no compound present), and 0 POC was determined using pre-quenched control reactions.

[3] = target: T3, HEK-293 cells expressing a G810R mutant RET Kif5b-RET fusion protein (Homo sapiens, UniProt P07949, G810R); experiment: RET G810R Mutant Cell Assay (phospho-RET Tyr1062); assay type: cell-based; settings: HEK-293 Kif5b-RET G810R, 1 hour incubation, phospho-RET normalized to GAPDH
T3 construct: KIF5B (N-terminal portion incl. coiled-coil); expressed in transfected cells; host or cells: HEK-293; the other entry of the earlier key: KIF5B (P33176, Kinesin-1 heavy chain)
T3 sequence (P07949 713-1063 G810R limits assumed): T1 sequence (P07949 713-1063 limits assumed) with G98R
Method: as §1, with “expressing a G810R or G810S mutant RET Kif5b-RET fusion” for “expressing a Kif5b-RET fusion”, “μL PBS was added to” for “μL PBS is added to”, “POC values are fit to” for “POC values were fit to”

Sequence of G810S mutant RET kinase (P07949 29-1114 G810S): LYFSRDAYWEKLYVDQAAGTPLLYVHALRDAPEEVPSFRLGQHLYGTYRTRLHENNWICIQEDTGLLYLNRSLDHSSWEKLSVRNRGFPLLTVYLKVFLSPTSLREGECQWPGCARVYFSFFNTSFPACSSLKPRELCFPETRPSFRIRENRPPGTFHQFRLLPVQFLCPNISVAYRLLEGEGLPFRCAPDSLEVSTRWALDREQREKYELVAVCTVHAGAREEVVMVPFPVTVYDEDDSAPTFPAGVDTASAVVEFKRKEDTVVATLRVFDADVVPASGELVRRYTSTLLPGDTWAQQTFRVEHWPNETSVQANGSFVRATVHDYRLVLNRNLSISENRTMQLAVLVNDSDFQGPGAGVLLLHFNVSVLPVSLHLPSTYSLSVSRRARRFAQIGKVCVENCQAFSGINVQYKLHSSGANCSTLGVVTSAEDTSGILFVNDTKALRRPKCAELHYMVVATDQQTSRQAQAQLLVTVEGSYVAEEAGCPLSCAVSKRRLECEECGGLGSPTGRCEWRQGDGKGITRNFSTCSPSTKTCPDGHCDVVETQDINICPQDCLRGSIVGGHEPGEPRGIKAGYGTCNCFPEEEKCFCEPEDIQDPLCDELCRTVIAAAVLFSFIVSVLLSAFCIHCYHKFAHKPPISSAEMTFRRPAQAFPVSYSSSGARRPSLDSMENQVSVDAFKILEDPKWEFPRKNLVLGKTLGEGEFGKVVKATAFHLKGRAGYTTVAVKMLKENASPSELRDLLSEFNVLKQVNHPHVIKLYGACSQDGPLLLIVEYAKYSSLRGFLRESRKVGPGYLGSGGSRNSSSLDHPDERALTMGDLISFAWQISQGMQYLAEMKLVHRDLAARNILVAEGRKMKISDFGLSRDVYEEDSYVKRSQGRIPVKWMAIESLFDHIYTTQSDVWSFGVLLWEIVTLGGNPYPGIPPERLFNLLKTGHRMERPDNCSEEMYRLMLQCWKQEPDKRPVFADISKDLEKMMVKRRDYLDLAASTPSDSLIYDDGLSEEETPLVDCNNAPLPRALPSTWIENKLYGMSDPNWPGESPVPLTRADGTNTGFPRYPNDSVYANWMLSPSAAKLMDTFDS
Sequence of RET kinase Wild Type (P07949 29-1114): as the sequence (P07949 29-1114 G810S) above, with S782G counted along it
Sequence of RET kinase V804M (P07949 29-1114 V804M): as the sequence (P07949 29-1114 G810S) above, with V776M, S782G counted along it
Sequence of G810R mutant RET kinase (P07949 29-1114 G810R): as the sequence (P07949 29-1114 G810S) above, with S782R counted along it

CC(C)n1c2c(c3c(N)ncnc31)-c1cc3ccc(C(=O)Nc4cnn(C)c4)cc3n1CCC2 [Example 93, 1-amino-5-isopropyl-N-(1-methyl-1H-pyrazol-4-yl)-5,6,7,8-tetrahydropyrimido[5″,4″:4′,5′]pyrrolo[3′,2′: 3,4]azepino[1,2-a]indole-11-carboxamide]
IC50 (RET kinase Wild Type): 1260 nM
IC50 [1]: 1000 nM
IC50 [2]: 1000 nM
IC50 (G810S mutant RET kinase): 5570 nM
IC50 (G810R mutant RET kinase): 1910 nM

Nc1ncnc2c1c1c(n2C2CCC(O)C2)CCC(=O)c2c-1noc2C1CC1 (mixture of isomers) [Example 128, 11-Amino-3-cyclopropyl-7-(3-hydroxycyclopentyl)-6,7-dihydroisoxazolo[4″,3″:6′,7′]cyclohepta[1′,2′:4,5]pyrrolo[2,3-d]pyrimidin-4(5H)-one 2,2,2-trifluoroacetate]
IC50 (RET kinase V804M): 349 nM
IC50 (RET kinase Wild Type): 88 nM
IC50 [1]: 157 nM
IC50 [2]: 435 nM
IC50 (G810S mutant RET kinase): 160 nM
IC50 (G810R mutant RET kinase): 98 nM

CC(C)n1c2c(c3c(N)ncnc31)-c1c(Cl)c3ccc(C(=O)NC4CC4)cc3n1CCC2 [Example 102, 1-Amino-14-chloro-N-cyclopropyl-5-isopropyl-5,6,7,8-tetrahydropyrimido[5″,4″:4′,5′]pyrrolo[3′,2′:3,4]azepino[1,2-a]indole-11-carboxamide]
IC50 (RET kinase V804M): 483 nM
IC50 (RET kinase Wild Type): 128 nM
IC50 [1]: 35 nM
IC50 [2]: 86 nM
IC50 (G810S mutant RET kinase): 183 nM
IC50 (G810R mutant RET kinase): 760 nM

Nc1ncnc2c1c1c(n2C2CCC2)CCC(O)c2c-1noc2C1CC1 (stereo not drawn) [Example 144, 11-Amino-7-cyclobutyl-3-cyclopropyl-4,5,6,7-tetrahydroisoxazolo[4″,3″:6′,7]cyclohepta[1′,2′:4,5]pyrrolo[2,3-d]pyrimidin-4-ol 2,2,2-trifluoroacetate]
IC50 (RET kinase V804M): 57 nM
IC50 (RET kinase Wild Type): 24 nM
IC50 [1]: 40 nM
IC50 [2]: 177 nM
IC50 (G810S mutant RET kinase): 101 nM
IC50 (G810R mutant RET kinase): 61 nM

Nc1ncnc2c1c1c(n2C2CCOC2)CCC(O)c2c-1noc2C1CC1 (stereo not drawn) [Example 121, 11-amino-3-cyclopropyl-7-(tetrahydrofuran-3-yl)-4,5,6,7-tetrahydro-isoxazolo[4″,3″:6′,7′]cyclohepta[1′,2′:4,5] pyrrolo[2,3-d]pyrimidin-4-ol]
IC50 (RET kinase V804M): 120 nM
IC50 (RET kinase Wild Type): 41 nM
IC50 [1]: 74 nM
IC50 [2]: 118 nM
IC50 (G810S mutant RET kinase): 84 nM
IC50 (G810R mutant RET kinase): 87 nM

CC(C)n1c2c(c3c(N)ncnc31)-c1cc3ccc(C(=O)Nc4ccccn4)cc3n1CCC2 [Example 90, 1-amino-5-isopropyl-N-(pyridin-2-yl)-5,6,7,8-tetrahydropyrimido[5″,4″:4′,5′]pyrrolo[3′,2′: 3,4]azepino[1,2-a]indole-11-carboxamide]
IC50 (RET kinase Wild Type): 353 nM
IC50 [1]: 222 nM
IC50 [2]: 408 nM
IC50 (G810S mutant RET kinase): 1600 nM
IC50 (G810R mutant RET kinase): 1060 nM

CC1(n2c3c(c4c(N)ncnc42)-c2noc(C4CC4)c2C(O)CC3)CC1 (stereo not drawn) [Example 149, 11-Amino-3-cyclopropyl-7-(1-methylcyclopropyl)-4,5,6,7-tetrahydroisoxazolo[4″,3″:6′,7′]cyclohepta[1′,2′:4,5]pyrrolo[2,3-d]pyrimidin-4-ol]
IC50 (RET kinase V804M): 22 nM
IC50 (RET kinase Wild Type): 7 nM
IC50 [1]: 2 nM
IC50 [2]: 20 nM
IC50 (G810S mutant RET kinase): 41 nM
IC50 (G810R mutant RET kinase): 70 nM

CNC(=O)c1ccc2cc3n(c2c1)C(=O)NCc1c-3c2c(N)ncnc2n1C(C)C [Example 73, 1-Amino-5-isopropyl-N-methyl-8-oxo-5,6,7,8-tetrahydropyrimido[5″,4″:4′,5′]pyrrolo[2′,3′:5,6][1,3]diazepino[1,7-a]indole-11-carboxamide]
IC50 (RET kinase Wild Type): 531 nM
IC50 [1]: 13900 nM
IC50 [2]: 16700 nM
IC50 (G810S mutant RET kinase): 2480 nM
IC50 (G810R mutant RET kinase): 2740 nM

Nc1ncnc2c1c1c(n2[C@H]2C[C@H](CO)C2)CCC(O)c2c-1noc2C1CC1 (stereo partly drawn) [Example 135, 11-Amino-3-cyclopropyl-7-((1r,3r)-3-(hydroxymethyl)cyclobutyl)-4,5,6,7-tetrahydroisoxazolo[4″,3″:6′,7′]cyclohepta[1′,2′:4,5]pyrrolo[2,3-d]pyrimidin-4-ol 2,2,2-trifluoroacetate]
IC50 (RET kinase V804M): 152 nM
IC50 (RET kinase Wild Type): 45 nM
IC50 [1]: 54 nM
IC50 [2]: 103 nM
IC50 (G810S mutant RET kinase): 229 nM
IC50 (G810R mutant RET kinase): 150 nM

COC(=O)[C@H]1C[C@@H](n2c3c(c4c(N)ncnc42)-c2noc(C4CC4)c2C(O)CC3)C1 (stereo partly drawn) [Example 137, Methyl (1s,3s)-3-(11-amino-3-cyclopropyl-4-hydroxy-5,6-dihydroisoxazolo[4″,3″:6′,7′]cyclohepta[1′,2′:4,5]pyrrolo[2,3-d]pyrimidin-7(4H)-yl)cyclobutane-1-carboxylate 2,2,2-trifluoroacetate]
IC50 (RET kinase V804M): 60 nM
IC50 (RET kinase Wild Type): 38 nM
IC50 [1]: 67 nM
IC50 [2]: 280 nM
IC50 (G810S mutant RET kinase): 155 nM
IC50 (G810R mutant RET kinase): 52 nM

CCN1Cc2c(c3c(N)ncnc3n2C(C)C)-c2noc(C3CC3)c2C1=O [Example 1, 11-amino-3-cyclopropyl-5-ethyl-7-isopropyl-6,7-dihydroisoxazolo[4,3-c]pyrimido[5′,4′:4,5]pyrrolo[3,2-e]azepin-4(5H)-one]
IC50 (RET kinase V804M): 202 nM
IC50 (RET kinase Wild Type): 52 nM
IC50 [1]: 17 nM
IC50 (G810S mutant RET kinase): 117 nM
IC50 [3]: 179 nM
IC50 (G810R mutant RET kinase): 145 nM
